{
  "source": "patent US8247211B2",
  "about": "“Glycopeptide antibiotics” (American Cyanamid Company, priority 2001, dated 2012)",
  "assay_in_all_cases": "In vitro antibacterial evaluation: minimum inhibitory concentration (MIC), broth dilution method",
  "type_in_all_cases": "cell-based",
  "key": {"Enterococcus sp.": {"system": "Enterococcus sp.", "details": "broth dilution, 5×10^5 CFU/mL, 18 hours at 35° C.", "description": "(§1) The minimum inhibitory concentration (MIC), the lowest concentration of the antibiotic which inhibits growth of the test organism, is determined by the broth dilution method using Muller-Hinton II […] (Baltimore Biological Laboratories) following the recommendations of the National Committee for Clinical Laboratory Standards [Methods for dilution antimicrobial susceptibility tests for bacteria that grow aerobically, approved standard M7-A2, National Committee for Clinical Laboratory Standards, Villanova, Pa].\n(§2) An inoculum level of 5×10^5 CFU/mL, and a range of antibiotic concentrations (64-0.06 μg/mL) is used. […] The test organisms include a spectrum of Gram-positive bacteria comprised of Staphylococcus sp., Streptococcus sp. and Enterococcus sp. These organisms include recent clinical isolates that are resistant to methicillin, penicillin and/or vancomycin."}, "Escherichia coli": {"system": "Escherichia coli", "details": "5×10^5 CFU/mL, 18 hours at 35° C.", "description": "as §1, §2"}, "Staphylococcus sp.": {"system": "Staphylococcus sp.", "details": "for MIC Staphylococcus aureus (ATCC 29213): strain ATCC 29213; for MIC Staphylococcus aureus (GC 1131): strain GC 1131; for MIC Staphylococcus aureus (GC 3051): strain GC 3051; for MIC Staphylococcus aureus (GC 3053): strain GC 3053; for MIC Staphylococcus aureus (GC 4541): strain GC 4541; for MIC Staphylococcus aureus (GC 4542): strain GC 4542; for MIC Staphylococcus aureus (GC 4544): strain GC 4544; for MIC Staphylococcus aureus (GC 4545): strain GC 4545", "description": "as §1, §2"}, "Streptococcus sp.": {"system": "Streptococcus sp.", "details": "broth dilution, 5×10^5 CFU/mL, 18 hours at 35° C.", "description": "as §1, §2"}, "[1]": {"details": "broth dilution, 5×10^5 CFU/mL, 18 hours at 35° C."}, "[2]": {"details": "broth dilution, 18 hours at 35° C."}},
  "data": [
    {"smiles": "CC(c1ccccc1)C1NC(=O)CNC(=O)C(CO)NC(=O)C(C(O)C2CNC(=N)N2C2OC(CO)C(O)C(O)C2O)NC(=O)C(C(O)C2CNC(=N)N2)NC(=O)C(Cc2ccc(OC3OC(CO)C(OC4OC(CO)C(O)C5OC(CC67CC8CC(CC(C8)C6)C7)OC45)C(O)C3O)cc2)NC1=O", "note": "(centres unmarked) [Example 128]", "values": [
      {"measurement": "MIC Enterococccus avium (GC 4558)", "setting": "Enterococcus sp.", "result": 4, "unit": "µg/mL"},
      {"measurement": "MIC Enterococccus faecalis (ATCC 29212)", "setting": "Enterococcus sp.", "result": 4, "unit": "µg/mL"},
      {"measurement": "MIC Enterococccus faecalis (GC 2691)", "setting": "Enterococcus sp.", "result": 4, "unit": "µg/mL"},
      {"measurement": "MIC Enterococccus faecalis (GC 3059)", "setting": "Enterococcus sp.", "result": 4, "unit": "µg/mL"},
      {"measurement": "MIC Enterococccus faecalis (GC 4552)", "setting": "Enterococcus sp.", "result": 4, "unit": "µg/mL"},
      {"measurement": "MIC Enterococccus faecalis (GC 4553)", "setting": "Enterococcus sp.", "result": 4, "unit": "µg/mL"},
      {"measurement": "MIC Enterococccus faecalis (GC 4554)", "setting": "Enterococcus sp.", "result": 4, "unit": "µg/mL"},
      {"measurement": "MIC Enterococccus faecalis (GC 6189)", "setting": "Enterococcus sp.", "result": 4, "unit": "µg/mL"},
      {"measurement": "MIC Enterococccus faecium (GC 2243)", "setting": "Enterococcus sp.", "result": 4, "unit": "µg/mL"},
      {"measurement": "MIC Enterococccus faecium (GC 4556)", "setting": "Enterococcus sp.", "result": 4, "unit": "µg/mL"},
      {"measurement": "MIC Enterococccus faecium (GC 4557)", "setting": "Enterococcus sp.", "result": 4, "unit": "µg/mL"},
      {"measurement": "MIC Enterococcus faecalis (GC 2242)", "setting": "Enterococcus sp.", "result": 4, "unit": "µg/mL"},
      {"measurement": "MIC Escherichia coli (ATCC 25922)", "setting": "Escherichia coli", "result": 32, "unit": "µg/mL"},
      {"measurement": "MIC Escherichia coli (GC 4559)", "setting": "Escherichia coli", "result": 32, "unit": "µg/mL"},
      {"measurement": "MIC Escherichia coli (GC 4560)", "setting": "Escherichia coli", "result": 4, "unit": "µg/mL"},
      {"measurement": "MIC Coagulase Negative Staphylococcus (GC 4547)", "setting": "Staphylococcus sp.; [1]", "result": 4, "unit": "µg/mL"},
      {"measurement": "MIC Coagulase Negative Staphylococcus (GC 4548)", "setting": "Staphylococcus sp.; [1]", "result": 2, "unit": "µg/mL"},
      {"measurement": "MIC Coagulase Negative Staphylococcus (GC 4549)", "setting": "Staphylococcus sp.; [1]", "result": 2, "unit": "µg/mL"},
      {"measurement": "MIC Coagulase Negative Staphylococcus (GC 4551)", "setting": "Staphylococcus sp.; [1]", "result": 4, "unit": "µg/mL"},
      {"measurement": "MIC Coagulase Negative Staphylococcus (GC 6257)", "setting": "Staphylococcus sp.; [1]", "result": 2, "unit": "µg/mL"},
      {"measurement": "MIC Staphylococcus aureus-SMITH (GC 4543)", "setting": "Staphylococcus sp.; [1]", "result": 2, "unit": "µg/mL"},
      {"measurement": "MIC Staphylococcus haemolyticus (GC 4546)", "setting": "Staphylococcus sp.; [1]", "result": 2, "unit": "µg/mL"},
      {"measurement": "MIC Staphylococcus aureus (ATCC 29213)", "setting": "Staphylococcus sp.", "result": 2, "unit": "µg/mL"},
      {"measurement": "MIC Staphylococcus aureus (ATCC 29213)", "setting": "Staphylococcus sp.; [2]", "result": 2, "unit": "µg/mL"},
      {"measurement": "MIC Staphylococcus aureus (GC 1131)", "setting": "Staphylococcus sp.", "result": 4, "unit": "µg/mL"},
      {"measurement": "MIC Staphylococcus aureus (GC 1131)", "setting": "Staphylococcus sp.; [2]", "result": 4, "unit": "µg/mL"},
      {"measurement": "MIC Staphylococcus aureus (GC 3051)", "setting": "Staphylococcus sp.", "result": 2, "unit": "µg/mL"},
      {"measurement": "MIC Staphylococcus aureus (GC 3051)", "setting": "Staphylococcus sp.; [2]", "result": 2, "unit": "µg/mL"},
      {"measurement": "MIC Staphylococcus aureus (GC 3053)", "setting": "Staphylococcus sp.", "result": 2, "unit": "µg/mL"},
      {"measurement": "MIC Staphylococcus aureus (GC 3053)", "setting": "Staphylococcus sp.; [2]", "result": 2, "unit": "µg/mL"},
      {"measurement": "MIC Staphylococcus aureus (GC 4541)", "setting": "Staphylococcus sp.", "result": 2, "unit": "µg/mL"},
      {"measurement": "MIC Staphylococcus aureus (GC 4541)", "setting": "Staphylococcus sp.; [2]", "result": 2, "unit": "µg/mL"},
      {"measurement": "MIC Staphylococcus aureus (GC 4542)", "setting": "Staphylococcus sp.", "result": 2, "unit": "µg/mL"},
      {"measurement": "MIC Staphylococcus aureus (GC 4542)", "setting": "Staphylococcus sp.; [2]", "result": 2, "unit": "µg/mL"},
      {"measurement": "MIC Staphylococcus aureus-SMITH (GC 4543)", "setting": "Staphylococcus sp.; strain GC 4543, broth dilution, 18 hours at 35° C.", "result": 2, "unit": "µg/mL"},
      {"measurement": "MIC Staphylococcus aureus (GC 4544)", "setting": "Staphylococcus sp.", "result": 4, "unit": "µg/mL"},
      {"measurement": "MIC Staphylococcus aureus (GC 4544)", "setting": "Staphylococcus sp.; [2]", "result": 4, "unit": "µg/mL"},
      {"measurement": "MIC Staphylococcus aureus (GC 4545)", "setting": "Staphylococcus sp.", "result": 2, "unit": "µg/mL"},
      {"measurement": "MIC Staphylococcus aureus (GC 4545)", "setting": "Staphylococcus sp.; [2]", "result": 2, "unit": "µg/mL"},
      {"measurement": "MIC Staphylococcus haemolyticus (GC 4546)", "setting": "Staphylococcus sp.; strain GC 4546, broth dilution, 18 hours at 35° C.", "result": 2, "unit": "µg/mL"},
      {"measurement": "MIC Coagulase Negative Staphylococcus (GC 4547)", "setting": "Staphylococcus sp.; strain GC 4547, broth dilution, 18 hours at 35° C.", "result": 4, "unit": "µg/mL"},
      {"measurement": "MIC Coagulase Negative Staphylococcus (GC 4548)", "setting": "Staphylococcus sp.; strain GC 4548, broth dilution, 18 hours at 35° C.", "result": 2, "unit": "µg/mL"},
      {"measurement": "MIC Coagulase Negative Staphylococcus (GC 4549)", "setting": "Staphylococcus sp.; strain GC 4549, broth dilution, 18 hours at 35° C.", "result": 2, "unit": "µg/mL"},
      {"measurement": "MIC Coagulase Negative Staphylococcus (GC 4551)", "setting": "Staphylococcus sp.; strain GC 4551, broth dilution, 18 hours at 35° C.", "result": 4, "unit": "µg/mL"},
      {"measurement": "MIC Coagulase Negative Staphylococcus (GC 6257)", "setting": "Staphylococcus sp.; strain GC 6257, broth dilution, 18 hours at 35° C.", "result": 2, "unit": "µg/mL"},
      {"measurement": "MIC Streptococcus agalactiae (GC 4564)", "setting": "Streptococcus sp.", "result": 0.25, "unit": "µg/mL"},
      {"measurement": "MIC Streptococcus pneumoniae (GC 1894)", "setting": "Streptococcus sp.", "result": "<0.06", "unit": "µg/mL"},
      {"measurement": "MIC Streptococcus pneumoniae (GC 4565)", "setting": "Streptococcus sp.", "result": 0.12, "unit": "µg/mL"},
      {"measurement": "MIC Streptococcus pneumonine (ATCC 6301)", "setting": "Streptococcus sp.", "result": 0.25, "unit": "µg/mL"},
      {"measurement": "MIC Streptococcus pyogenes (GC 4563)", "setting": "Streptococcus sp.", "result": 0.5, "unit": "µg/mL"}
    ]}
  ]
}
